Results: patent publication US20050074879A1, “Antisense oligonucleotide modulation of STAT3 expression” (priority 2000, published 2005)
Oligonucleotides are written 5' to 3', each unit as a sugar letter and its base; * is a phosphorothioate linkage, no mark a phosphodiester; rarer units and linkages stand in square brackets, end groups in braces. Plain capitals give the bases only. e = 2'-O-(2-methoxyethyl) (MOE); [5mC] = 5-methylcytosine; d = 2'-deoxy (DNA)

Experiments:
MIP1b mRNA = test: Induction of chemokines in BCL1 cells, RNase protection assay: MIP1b; assay type: cell-based, mouse; conditions: CpG oligonucleotide induced
Experimental: (§1) The effect of ISIS 17152 (SEQ ID. NO. 99) on chemokine levels was determined. BCL1 cells were grown, treated and processed as described in Example 2. Chemokine gene expression was induced in BCL1 cells by addition of […] of a CpG-containing oligonucleotide to the media 16 hours following antisense oligonucleotide electroporation. CpG-containing oligonucleotides are immune-stimulatory (Krieg, A. M., et al., Nature, 1995, 374, 546-549). The levels of chemokines were measured eight hours later using RNase protection assay as described in Example 2 with a mouse chemokine template set, Mck-5 (Pharmingen, San Diego, Calif.).

RANTES mRNA = test: Induction of chemokines in BCL1 cells, RNase protection assay: RANTES; assay type: cell-based, mouse; conditions: CpG oligonucleotide induced
Experimental: as §1

BCL1 cells = test: BCL1 cell proliferation, [3H]-thymidine incorporation; assay type: cell-based, mouse; conditions: BCL1 cells; for % Cell Proliferation: 48 hours after electroporation
Experimental: The effect of ISIS 17152 (SEQ ID NO. 99) on BCL1 proliferation was determined. BCL1 cells contain constitutively active STAT3 which is thought to be responsible for their proliferation. BCL1 cells were grown, treated and processed as described in Example 2.
1×10^5 BCL1 cells were incubated in 96-well plates in […] complete RPMI following electroporation. Cultures were pulsed with […] of [^3H]-thymidine for the last 8 hours of culture and cells were harvested and analyzed for thymidine incorporation as described in Francis, D. A. et al. (Int. Immunol., 1995, 7, 151-161) 48 hours after electroporation.

MIP1a mRNA = test: Induction of chemokines in BCL1 cells, RNase protection assay: MIP1a; assay type: cell-based, mouse; conditions: CpG oligonucleotide induced
Experimental: as §1

Mouse STAT3 protein = test: STAT3 protein levels in BCL1 cells by Western blot, dose response; assay type: cell-based
Experimental: ISIS 17152 (SEQ ID. NO. 99) was chosen for further study. The effect of this oligonucleotide on protein levels was determined by Western blot. ISIS 23177 (SEQ ID NO. 106), a 3 base mismatch, was used as a control. BCL1 cells were grown, treated and processed as described in Example 2.
Nuclear extracts from primary B cells and B lymphoma cell lines were prepared as described in Karras, J. G., et al. (J. Exp. Med., 1997, 185, 1035-1042).
Western blotting was performed as described in Karras, J. G. et al. (J. Immunol., 1996, 157, 2299). STAT1 and STAT3 antibodies were obtained from UBI (Lake Placid, N.Y.).

Human STAT3 mRNA = test: Inhibition of human STAT3 mRNA expression in U266 cells, Northern blot; assay type: cell-based; conditions: U266 cells, 2.5 μM oligonucleotide, electroporation, 24 hours
Experimental: U266 human myeloma cell lines (originally obtained from American Type Culture Collection) were maintained in RPMI 1640 medium supplemented with 10% fetal calf serum. Cells (15×10^6 cells in PBS) were transfected with oligonucleotides at 200V with a single 6-millisecond pulse using a BTX Electro Square Porator T820 (Genetronics, San Diego Calif.). The cells were incubated for 24 hours before RNA extraction.
Total cellular RNA was isolated using the Rneasy kit (Qiagen, Santa Clarita, Calif.). Northern blotting was perfomed on 15 μg of RNA using a cDNA probe prepared from MB-MDA 468 RNA by standard RT-PCR followed by a nested primer reaction. Signals were quantitated using a Molecular Dynamics Phosphorimager.
In order to examine the importance of STAT3 expression in multiple myeloma cells, a series of 20mer STAT3 antisense oligonucleotides were designed and synthesized, using phosphorothioate chemistry and incorporating 2′-O-methoxyethyl modifications to improve hybridization affinity and nuclease resistance.

Mouse STAT3 mRNA = test: Inhibition of mouse STAT3 mRNA expression in BCL1 cells (electroporation; RNase protection/Northern blot); assay type: cell-based; design: % mRNA INHIBITION: dose or concentration left out as unconfirmed; conditions: BCL1 cells electroporated with oligonucleotide, RNA collected 24 hours later
Experimental: The B lymphoma cell line, BCL1 was obtained from ATCC (Rockville, Md.). BCL1 cells were cultured in RPMI 1640 medium.
BCL1 cells (5×10^6 cells in PBS) were transfected with oligonucleotides by electroporation, at 200V, […]. using a BTX Electro Cell Manipulator 600 (Genetronics, San Diego, Calif.). For an initial screen, BCL1 were electroporated with […] oligonucleotide and RNA collected 24 hours later. Controls without oligonucleotide were subjected to the same electroporation conditions.
Total cellular RNA was isolated using the RNEASY7 kit (Qiagen, Santa Clarita, Calif.). RNAse protection experiments were conducted using RIBOQUANT™ kits and template sets according to the manufacturer's instructions (Pharmingen, San Diego, Calif.). Northern blotting was performed as described in Chiang, M-Y. et al. (J. Biol. Chem., 1991, 266, 18162-18171), using a rat cDNA probe prepared by Xho I/Sal I restriction digest of psvsport-1 plasmid (ATCC, Rockville, Md.). mRNA levels were quantitated using a PhosphorImager (Molecular Dynamics, Sunnyvale, Calif.).

[1] = tested on: IgM secretion by BCL1 cells; test: BCL1 IgM secretion, ELISA; assay type: cell-based, mouse
Experimental: The effect of ISIS 17152 (SEQ ID. NO. 99) on IgM secretion levels was determined. STAT3 has been implicated in regulation of IgM expression (Faris, M., et al., Immunology, 1997, 90, 350-357). BCL1 cells were grown, treated and processed as described in Example 2.
1×10^6 BCL1 cells were incubated in 12-well plates in 2 mL complete RPMI following electroporation. Supernatant was replaced at 24 hour post electroporation with fresh medium. 48 hours later, supernatants were harvested, centrifuged to remove cells, and assayed for IgM content using the OPT-EIA™ ELISA kit (Pharmingen, San Diego, Calif.) and capture and detecting antibodies for mouse IgM (Southern Biotechnology, Birmingham, Ala.).

Substance: 17152 (antisense eA*eA*eA*eA*eA*dG*dT*dG*dC*dC*dC*dA*dG*dA*dT*eT*eG*e[5mC]*e[5mC]*e[5mC]) [compound 17152]
- % MIP1b mRNA (MIP1b mRNA; dose 5 nM): 133%
- % MIP1b mRNA (MIP1b mRNA; dose 10 nM): 150%
- % MIP1b mRNA (MIP1b mRNA; dose 20 nM): 159%
- % RANTES mRNA (RANTES mRNA; dose 5 nM, control 100%): 236%
- % RANTES mRNA (RANTES mRNA; dose 10 nM): 266%
- % RANTES mRNA (RANTES mRNA; dose 20 nM): 257%
- % Cell Inhibition (BCL1 cells; dose 10 nM): 21.5%
- % Cell Proliferation (BCL1 cells; dose 10 nM): 78.5%
- % Cell Inhibition (BCL1 cells; dose 15 nM): 45.6%
- % Cell Proliferation (BCL1 cells; dose 15 nM): 54.4%
- % Cell Inhibition (BCL1 cells; dose 20 nM): 49.8%
- % Cell Proliferation (BCL1 cells; dose 20 nM): 50.2%
- % MIP1a mRNA (MIP1a mRNA; dose 5 nM): 201%
- % MIP1a mRNA (MIP1a mRNA; dose 10 nM): 258%
- % MIP1a mRNA (MIP1a mRNA; dose 20 nM): 254%
- % protein Expression (Mouse STAT3 protein; dose 10 nM): 41.7%
- % protein Inhibition (Mouse STAT3 protein; dose 10 nM): 58.3%
- % protein Expression (Mouse STAT3 protein; dose 15 nM): 42.5%
- % protein Inhibition (Mouse STAT3 protein; dose 15 nM): 57.5%
- % protein Expression (Mouse STAT3 protein; dose 20 nM): 26.5%
- % protein Inhibition (Mouse STAT3 protein; dose 20 nM): 73.5%
- % mRNA INHIBITION (Human STAT3 mRNA): 17.5%
- % mRNA EXPRESSION (Human STAT3 mRNA; percent of control): 82.5%
- % mRNA INHIBITION (Mouse STAT3 mRNA): 75%
- % mRNA EXPRESSION (Mouse STAT3 mRNA; control 100%): 25%
- % IgM Expression ([1]; dose 5 nM): 34.2%
- % IgM Inhibition ([1]; dose 5 nM): 65.8%
- % IgM Expression ([1]; dose 15 nM): 23.1%
- % IgM Inhibition ([1]; dose 15 nM): 76.9%

Substance: 23177 (antisense eA*eA*eA*eA*eA*dG*dT*dC*dC*dG*dC*dT*dG*dA*dT*eT*eG*e[5mC]*e[5mC]*e[5mC]) [compound 23177]
- % Cell Proliferation (BCL1 cells; dose 10 nM): 117.0%
- % Cell Inhibition (BCL1 cells; dose 15 nM): 0.3%
- % Cell Proliferation (BCL1 cells; dose 15 nM): 99.7%
- % Cell Proliferation (BCL1 cells; dose 20 nM): 107.0%
- % protein Expression (Mouse STAT3 protein; dose 10 nM): 75.1%
- % protein Inhibition (Mouse STAT3 protein; dose 10 nM): 24.9%
- % protein Expression (Mouse STAT3 protein; dose 15 nM): 67.6%
- % protein Inhibition (Mouse STAT3 protein; dose 15 nM): 32.4%
- % protein Expression (Mouse STAT3 protein; dose 20 nM): 62.6%
- % protein Inhibition (Mouse STAT3 protein; dose 20 nM): 37.4%
- % IgM Expression ([1]; dose 5 nM): 110.0%
- % IgM Expression ([1]; dose 15 nM): 80.8%
- % IgM Inhibition ([1]; dose 15 nM): 19.2%
